Molecules are shown by their SMILES. Several values for one entry are separate records, joined by “and”; a condition that tells them apart may be missing. Equal entries are not always repeated.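 Grown in 96-well plates, cells were treated for 48 hours with each compound at five concentrations. Insufficient inhibition: endpoint recorded as highest concentration tested. GI50: concentration for 50% inhibition of growth. TGI: concentration producing complete growth inhibition.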 Some results are limits rather than exact numbers.

Holding throughout (experiment): DTP human tumour cell line panel, 48 h
Test [1] has as its system SN12C renal.
Test [2] deals with LOX IMVI melanoma.
Test [3] concerns HOP-62 NSCLC.
For test [4], the system named is HCT-116 colon.
Test [5] relates to RXF 393 renal.
Test [6] relates to ACHN renal.
The subject of test [7] is NCI-H460 lung.
For test [8], the system named is NCI-H226 lung.
Test [9] relates to MOLT-4 leukemia.
For test [10], the system named is TK-10 renal.

The term GI50 denotes the concentration that inhibits growth by half. In general, TGI refers to the concentration giving total growth inhibition. A lower TGI goes with greater sensitivity of the cells. Regarding `NCCCNc1nc2ccccc2c2c(=O)c3cc(F)ccc3sc12`, the GI50 in test [1] is 1.48 µM; in test [2] it was 1.43 µM; in [3] it was 1.43 µM; in test [4] it was 1.43 µM; in test [5], 1.42 µM; in test [6] it was 1.58 µM. Further, the GI50 in test [7] is 1.65 µM. Besides, the TGI was 2.93 µM in test [1]; 2.83 µM in test [2]; 3.15 µM in test [3]; 2.77 µM in [4]; 2.74 µM in test [5]; 2.93 µM in test [6]. In test [7], the TGI came out at 3.22 µM.
Turning to `COc1ccc(OC)c(Nc2nc3nonc3nc2Nc2cccc(Br)c2)c1`, the concentration for 50% growth inhibition (GI50) in test [1] is 0.405 µM; in test [8] it was 0.588 µM; in test [9], 0.809 µM; in test [10], 0.988 µM; in test [2] it was 1.93 µM; in [3], 1.62 µM. For the same molecule, the GI50 in [4] is 0.53 µM; in test [6] it was 0.927 µM; in [7] it was 0.504 µM. For the same molecule, the TGI is 7.07 µM in [1]; 40.2 µM in [8]; 12.1 µM in test [9]; 16.5 µM in test [10]; > 100 µM in test [2]; 7.43 µM in test [3]. In addition, the TGI in [4] was > 100 µM; in test [6], 13.3 µM; in test [7], > 100 µM.
Regarding `CC1OC(n2cc(C(F)(F)F)c(=O)[nH]c2=O)C=CC1=O` (stereo not drawn), the TGI in test [1] turned out to be 57.8 µM; in test [8] it was 66.1 µM; in [9] it was 57.2 µM; in [10], 35.3 µM; in [2], 33 µM; in test [3] it was 52.3 µM. For the same molecule, the total growth inhibition concentration (TGI) in test [4] was 29.7 µM; in [6] it was 31.4 µM; in test [7], 48.6 µM.
In the case of `COc1cc(OCc2ccccc2)c2c(CCC(=O)O)cc(=O)oc2c1` (tested in a mixture with another compound), the concentration for total growth inhibition (TGI) in [8] was > 100 µM; in test [9], 90.4 µM; in [10], 96.6 µM; in test [2], > 100 µM; in [4] it was > 100 µM; in test [6] it was > 100 µM.
On to `Nc1ccccc1C#C/C=C\C#Cc1ccccc1C#CCO`, for which the GI50 in [1] is 9.46 µM; in test [10], 11.8 µM; in test [2], 1.36 µM; in test [3] it was 8.35 µM; in test [4], 8.3 µM; in test [5] it was 9.25 µM. Also, the GI50 in [6] was 6.11 µM; in [7], 8.73 µM. In addition, the TGI was 27.4 µM in test [1]; 27.5 µM in [10]; 8.97 µM in [2]; > 50 µM in [3]; 24.7 µM in test [4]; 32.1 µM in [5]. In addition, the TGI in test [6] stood at 18.3 µM; in [7], 22 µM.
Take `CCC12C=CCN(CCc3c([nH]c4ccccc34)/C=C\1)C2` (stereo not drawn): the concentration for total growth inhibition (TGI) in [1], in test [8], in test [9], in test [2], in test [3] and in test [4] was > 100 µM in each case. Also, the TGI in [6] and in test [7] was > 100 µM each time.
As to `COc1cccc2c1C(=O)c1c(O)c3c(c(O)c1C2=O)C[C@@](O)(C(=O)CO)CC3OC1CC(N)C(OC2CCCCO2)C(C)O1` (stereo partly drawn), the concentration for 50% growth inhibition (GI50) in [1] was 0.0157 µM; in test [9], < 0.001 µM; in test [10], 0.0368 µM; in test [2], 0.0184 µM; in test [3] it was 0.0029 µM; in test [5] it was 0.12 µM. The concentration for total growth inhibition (TGI) was 0.276 µM and 0.576 µM in [9]; 1 µM and 1.62 µM in test [2]; 1.16 µM and 3.31 µM in test [4]; 0.029 µM in test [6]; 1.08 µM and 5.09 µM in test [7].
In the case of `CCN(CC)CCNC(=O)c1cccc2c1-c1ccccc1C2=O`, the GI50 was > 100 µM in test [1]; > 100 µM in [8]; > 100 µM in test [10]; > 100 µM in test [2]; > 100 µM in test [3]; 55.9 µM in test [4]. Further, the GI50 in [5], in [6] and in [7] was > 100 µM in each case. The TGI in test [1], in [8], in test [10], in [2], in test [3] and in test [4] was > 100 µM each time. Further, the TGI in test [5], in [6] and in test [7] was > 100 µM each time.
On to `COC(=O)c1c(O)ccc(O)c1C(C(C)=O)C(C)=O`, for which the TGI in test [1], in test [9], in test [10], in [2], in test [3] and in [4] was > 100 µM each time. In addition, the TGI in test [5] and in test [7] was > 100 µM in each case.
With `Cc1ccc2c(c1)-c1c3c(nn1C)-c1ccccc1SC3O2` (stereo not drawn), the TGI in test [9], in test [10], in test [2], in [3], in [4] and in [5] was > 100 µM each time. For the same molecule, the TGI in test [6] and in test [7] was > 100 µM throughout.
For `O=S(=O)(NC1=NCCN1C(=S)SN1CCn2c1nsc2=S)c1ccc(Oc2ccccc2)cc1`, the GI50 is 59.8 µM in test [1]; > 100 µM in test [8]; 64.4 µM in [10]; 51 µM in test [2]; > 100 µM in test [3]; 51.2 µM in test [4]. Also, the GI50 in test [5] is 32.4 µM; in [6], 81.3 µM; in [7], 51.2 µM. Besides, the TGI in test [1], in [8], in [10], in test [2], in test [3] and in [4] was > 100 µM throughout. The values for the TGI in test [5], in [6] and in [7] were 86.1 µM, > 100 µM and > 100 µM, respectively.
Regarding `CC(=O)[CH-]C(=O)c1ccccc1.CC(=O)[CH-]C(=O)c1ccccc1.Cl.[O-]c1ccnc2ccccc12.[O-]c1ccnc2ccccc12.[Ti+4]`, the GI50 in [1], in test [8], in [9], in test [2], in [3] and in test [6] was > 100 µM throughout. Besides, the GI50 in test [7] was > 100 µM. Also, the TGI in test [1], in [8], in [9], in [2], in test [3] and in test [6] was > 100 µM in each case. In addition, the total growth inhibition concentration (TGI) in test [7] was > 100 µM.
Turning to `COc1ccc(Oc2nc3cc(N)cc(N)c3nc2-c2ccccc2)cc1`, the GI50 in [1] was 50.1 µM; in test [9], 5.31 µM; in test [10], 53.5 µM; in [2], 34.7 µM; in test [4], 28.7 µM; in test [5] it was 19.9 µM. Further, the GI50 was 36.4 µM in test [6] and 30.6 µM in [7]. Besides, the TGI in [1] was > 100 µM; in test [9] it was 93.9 µM; in [10], > 100 µM; in test [2] it was > 100 µM; in test [3], 40.8 µM; in test [4], 75.1 µM. For the same molecule, the values for the TGI in test [5], in test [6] and in [7] were 73.9 µM, > 100 µM and > 100 µM, respectively.
`c1ccc(C2=NOC3C4CCC(C4)C23)cc1` (stereo not drawn): the TGI in test [1], in test [8], in test [9], in [10], in [3] and in test [4] was > 100 µM throughout. Moreover, the TGI in test [6] and in test [7] was > 100 µM throughout.
Regarding `Cc1ccc(S(=O)(=O)OCOS(=O)(=O)c2ccc(C)cc2)cc1`, the concentration for total growth inhibition (TGI) in test [1], in test [9], in test [10], in test [2], in test [3] and in test [4] was > 100 µM each time. The TGI in [5], in [6] and in [7] was > 100 µM in each case.
As for `CN(C)c1ccc(/C=C(\C#N)c2cc3ccccc3[nH]2)cc1`, the GI50 is 2.37 µM in test [1]; 0.906 µM in test [9]; 2.66 µM in test [10]; 0.692 µM in test [2]; 1.16 µM in test [3]; 0.456 µM in test [4]. For the same molecule, the GI50 is 2.42 µM in test [6] and 0.476 µM in test [7]. Moreover, the total growth inhibition concentration (TGI) in test [1] is > 100 µM; in test [9], > 100 µM; in test [10], > 100 µM; in [2], > 100 µM; in [3], 4.54 µM; in [4] it was > 100 µM. For the same molecule, the TGI in test [6] and in [7] was > 100 µM each time.

The values are drawn from PubChem BioAssay (NCI).
